From article PMC9293909 (Nature Communications, 2022)
Values joined by “and” are separate entries in the source; they are usually repeats but may differ in a detail not shown here. Equal entries are not always repeated. Where two headings read alike, the source gives them in different places.

What was measured:
[1] = biological target: T1, hA1R Q293^8.48 alanine mutant (Homo sapiens, UniProt P30542, Q293A); assay: cAMP inhibition, Flp-In-CHO hA1R Q293A; format: cell-based; conditions: Fig4j
T1 construct: expressed in transfected cells
T1 sequence (P30542 whole entry Q293A): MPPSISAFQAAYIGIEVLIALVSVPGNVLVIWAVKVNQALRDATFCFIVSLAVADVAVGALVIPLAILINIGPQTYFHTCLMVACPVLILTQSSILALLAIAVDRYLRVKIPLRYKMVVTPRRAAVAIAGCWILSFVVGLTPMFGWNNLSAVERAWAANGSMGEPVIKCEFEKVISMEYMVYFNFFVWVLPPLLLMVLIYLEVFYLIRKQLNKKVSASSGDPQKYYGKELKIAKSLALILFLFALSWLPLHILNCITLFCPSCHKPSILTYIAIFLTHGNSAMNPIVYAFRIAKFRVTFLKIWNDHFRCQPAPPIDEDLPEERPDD
From the text: Cell lines were maintained using standard subculturing routines as guided by the European Collection of Cell Culture (ECACC) and checked annually for mycoplasma infection using an EZ-PCR mycoplasma test kit from Biological Industries (Kibbutz Beit-Haemek, Israel). To investigate the signalling properties of the rat A3R (rA3R) and mutants of the human A1R (hA1R), stable cell lines were generated using Flp-In-CHO cells (ThermoFisher - R75807). Untagged hA1R from sigNanoLuciferase (Nluc)-A1R in pcDNA3.1+ and untagged rA3R from sigNluc-A3R in pcDNA3.1 + (both gifted by Dr Steve Briddon (University of Nottingham)) were cloned into the pcDNA5/FRT expression vector (Thermo Fisher Scientific). Mutations within the hA1R were made using the QuikChange Lightening Site-Directed Mutagenesis Kit (Agilent Technologies) in accordance with the manufacturer’s instructions. Constructs for generating Goa/b interfering and scrambled peptides were generated by PCR and cloned into the BamHI/HindIII site of pcDNA3.1- as described in Gilchrist et al.[60],. Prior to the initiator codon a Kozak sequence was included for enhanced translation. The peptide sequences used were: for Goa […], for Gob […], and for the scrambled peptide […] was used. Constructs were sequenced to confirm fidelity. […]

[2] = biological target: T2, hA3R (Homo sapiens, UniProt P0DMS8); assay: cAMP inhibition at hA3R; format: cell-based; conditions: for Range hA3R: range of response as percentage of response to 10 μM forskolin
T2 construct: expressed in transfected cells; host or cells: CHO-K1
T2 sequence (P0DMS8 1-318): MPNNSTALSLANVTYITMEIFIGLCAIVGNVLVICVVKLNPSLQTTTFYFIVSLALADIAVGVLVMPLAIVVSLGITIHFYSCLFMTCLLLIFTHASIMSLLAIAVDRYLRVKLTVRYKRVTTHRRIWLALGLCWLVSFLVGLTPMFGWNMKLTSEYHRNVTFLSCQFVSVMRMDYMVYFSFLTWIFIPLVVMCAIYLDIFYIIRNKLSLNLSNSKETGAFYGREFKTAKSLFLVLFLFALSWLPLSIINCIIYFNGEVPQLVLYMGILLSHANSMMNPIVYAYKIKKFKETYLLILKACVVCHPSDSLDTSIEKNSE
Procedure: CHO cell lines expressing ARs of interest (including mutants of the hA1R) were routinely cultured in Ham’s F-12 nutrient mix supplemented with 10% foetal bovine serum (FBS), at 37 °C with 5% CO2, in a humidified atmosphere.

[3] = biological target: hA1R:Gob (Homo sapiens, UniProt P30542); assay: TRUPATH G protein dissociation BRET assay, Gob; format: cell-based; design: cDNA resource centre (pcDNA3.1-A1R); conditions: for EC50: Fig2h; for activation of Gob vs Goa: TRUPATH assay
hA1R:Gob, sequence (P09471 2-354 isoform P09471-2 partner limits assumed, one chain of several): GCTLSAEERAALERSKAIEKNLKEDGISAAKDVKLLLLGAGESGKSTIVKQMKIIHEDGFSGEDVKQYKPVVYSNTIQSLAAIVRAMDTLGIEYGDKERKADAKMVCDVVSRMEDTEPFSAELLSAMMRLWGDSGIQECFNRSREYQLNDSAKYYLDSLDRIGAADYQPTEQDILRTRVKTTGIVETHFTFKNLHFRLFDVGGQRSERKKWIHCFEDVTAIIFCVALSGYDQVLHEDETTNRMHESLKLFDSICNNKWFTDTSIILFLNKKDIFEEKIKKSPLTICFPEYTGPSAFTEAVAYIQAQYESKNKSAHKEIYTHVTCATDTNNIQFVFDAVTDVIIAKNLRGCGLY
hA1R:Gob, sequence (P16520 whole entry partner, one chain of several): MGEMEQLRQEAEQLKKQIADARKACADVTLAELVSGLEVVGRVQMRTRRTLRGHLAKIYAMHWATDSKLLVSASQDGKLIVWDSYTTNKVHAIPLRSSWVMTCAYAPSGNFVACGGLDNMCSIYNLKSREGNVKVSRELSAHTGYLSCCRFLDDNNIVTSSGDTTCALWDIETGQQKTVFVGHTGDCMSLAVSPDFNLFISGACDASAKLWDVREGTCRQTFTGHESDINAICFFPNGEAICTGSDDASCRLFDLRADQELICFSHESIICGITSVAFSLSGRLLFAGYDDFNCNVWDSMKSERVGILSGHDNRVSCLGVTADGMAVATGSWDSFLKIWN
hA1R:Gob, sequence (Q9UK08 1-67 partner limits assumed, one chain of several): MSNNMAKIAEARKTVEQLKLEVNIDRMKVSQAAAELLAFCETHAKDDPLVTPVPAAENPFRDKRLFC
Procedure: Cells were plated in a density of 1,500,000 cells/well in a 6-well plate and grown in DMEM /F-12 GlutaMAX™ media (Thermo Fisher Scientific, UK) supplemented with 10% FBS (Sigma, UK) and 1% AA (Sigma, UK). After being grown overnight, cells in each well were transfected using polyethylenimine 25 kDa (PEI, Polysciences Inc., Germany) at a 6:1 ratio of PEI to DNA, diluted in 150 mM NaCl. […] Gɑ (either Goa-RLuc8, or Gob-RLuc8), Gβ3 and Gγ8-GFP2 constructs were purchased as part of the TRUPATH sensor kit from Addgene, pcDNA3.1-A1R was obtained from cDNA resource centre, and pcDNA3.1 (-) zeo was purchased from Invitrogen. After 24 h, cells were trypsinised and re-seeded onto poly-L-lysine (PLL)-coated white 96-well plates (Greiner, UK) at the density of 50,000 cells/well in a complete DMEM/F-12 medium. After grown overnight, the culture media was discarded and replaced with 80 μl assay buffer (1× Hank’s balanced salt solution (HBSS) with calcium, supplemented with 20 mM HEPES and 0.1% BSA at pH 7.4). The assay was started by adding 10 μl of coelenterazine 400a (Nanolight technology, USA) to a final concentration of 5 μM. The plates were then incubated in the dark for 5 min, prior to the addition of 10 μl compounds (in a range of 0.01 nM – 1 µM). In order to investigate the effect of interfering peptides on Goa and Gob activation, cells were transfected with the TRUPATH constructs for Goa and Gob with the A1R as described above. However, the vector was replaced by either interfering or scrambled peptides, as appropriate, with increasing concentration: 0, 100, and 400 ng and was complemented by pcDNA3.1(-) up to 400 ng. […] BRET signal was recorded for 30 min on a Mithras LB940 plate reader allowing sequential integration of signal detected from GFP2 and Rluc8.

[4] = biological target: T3, hA1R:Gi1 (Homo sapiens, UniProt P30542); assay: cAMP inhibition in PTX-treated CHO-K1-hA1R cells with PTX-insensitive Gi1; format: cell-based
T3 construct: host or cells: CHO-K1-hA1R (made in-house), PTX-treated
Procedure: Cells were then incubated for 24 h before addition of 100 ng/ml PTX, to inhibit activity of endogenous Gαi/o, and then incubated for a further 16-18 h. Transfected cells were then assayed as per cAMP inhibition experiments, but co-stimulated with agonist and 100 nM forskolin.

[5] = biological target: T4, hA1R (Homo sapiens, UniProt P30542); assay: cAMP inhibition in CHO-K1-hA1R cells (forskolin co-stimulation); conditions: for Range hA1R: range of response as percentage of response to 10 μM forskolin; for cAMP levels, co-stimulation with 1 μM forskolin and agonist (Fig. 1biii): individual repeats and mean
T4 sequence (P30542 1-326): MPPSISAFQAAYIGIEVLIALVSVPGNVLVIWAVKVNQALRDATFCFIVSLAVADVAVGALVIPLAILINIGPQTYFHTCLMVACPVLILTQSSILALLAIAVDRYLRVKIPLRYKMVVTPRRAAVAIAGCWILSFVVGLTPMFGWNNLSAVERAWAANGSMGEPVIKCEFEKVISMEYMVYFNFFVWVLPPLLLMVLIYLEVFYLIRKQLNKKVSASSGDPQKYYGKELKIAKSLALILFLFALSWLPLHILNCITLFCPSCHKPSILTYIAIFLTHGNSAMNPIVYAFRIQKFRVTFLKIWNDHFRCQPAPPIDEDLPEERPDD
Procedure: All in vitro cell signalling assay data was analysed using Prism 8.4 (Graphpad software, San Diego, CA), with all concentration-response curves being fitted using a 3 parameter logistic equation to calculate response range and IC50. All cAMP data was normalised to a forskolin concentration-response curve ran in parallel to each assay.

Row | SMILES | IC50 ([1]; individual replicate, read-out: cAMP inhibition potency, 293A (converted)) | IC50 ([1]; read-out: cAMP inhibition potency, 293A, Average (converted)) [nM] | IC50 ([2]; half-maximal response, cAMP inhibition, read-out: pIC50 hA3R (converted)) [nM] | Range hA3R [2] | EC50 ([3]; individual replicate, read-out: TRUPATH Gob potency (converted)) | EC50 ([3]; n 8, read-out: TRUPATH Gob potency, Average (converted)) [nM] | activation of Gob vs Goa [3] | Emax ([4]; inhibition of forskolin-stimulated cAMP) [%] | EC50 ([4]; read-out: pEC50 Gi1 (converted)) [nM] | IC50 [5] [nM] | Range hA1R [5] [%] | pIC50 hA3R ([2]; half-maximal response, cAMP inhibition) | cAMP levels, co-stimulation with 1 μM forskolin and agonist (Fig. 1biii) ([5]; Log [Agonist] -6) | cAMP levels, co-stimulation with 1 μM forskolin and agonist (Fig. 1biii) ([5]; Log [Agonist] -7) | cAMP levels, co-stimulation with 1 μM forskolin and agonist (Fig. 1biii) ([5]; Log [Agonist] -8) | cAMP levels, co-stimulation with 1 μM forskolin and agonist (Fig. 1biii) ([5]; Log [Agonist] -9) | cAMP levels, co-stimulation with 1 μM forskolin and agonist (Fig. 1biii) ([5]; Log [Agonist] -10) | cAMP levels, co-stimulation with 1 μM forskolin and agonist (Fig. 1biii) ([5]; Log [Agonist] -11) | cAMP levels, co-stimulation with 1 μM forskolin and agonist (Fig. 1biii) ([5]; Log [Agonist] -12) | cAMP levels, co-stimulation with 1 μM forskolin and agonist (Fig. 1biii) ([5]; Log [Agonist] -13)
1 | OC[C@H]1O[C@@H](n2cnc3c(N[C@@H]4CCC[C@H]4O)ncnc32)[C@H](O)[C@@H]1O [HOCPA, (2 R,3 R,4 S,5 R)−2-(6-{[(1 R,2 R)−2-hydroxycyclopentyl]amino}−9H-purin-9-yl)−5-(hydroxymethyl)oxolane-3,4-diol] | 3.61 nM and 7.23 nM and 5 nM and 4.17 nM and 2.86 nM and 3.71 nM | 4.27 | 24.5 | 45.0 ± 2.1% | 132 nM and 51.3 nM and 38 nM and 46.8 nM and 61.7 nM and 50.1 nM and 52.5 nM | 57.5 | equipotent activation of both Goa and Gob | -37.1 | 8.91 | 0.832 | 60.52 ± 1.5 |  |  |  |  |  |  |  |  | 
2 | OC[C@H]1O[C@@H](n2cnc3c(NC4CCCC4)ncnc32)[C@H](O)[C@@H]1O [CPA, N^6-Cyclopentyladenosine] |  |  |  | N.R. |  |  | equipotent activation of both Goa and Gob |  |  |  | 48.97 ± 0.7 | N.R. | 40.1 and 40.118 and 40.1062 and 40.1555 and 40.1419 and 40.1089 and 40.1054 and 40.1072 and 40.1135 and 40.1134 and 40.1344 | 40.4 and 40.3687 and 40.2515 and 40.737 and 40.6042 and 40.2784 and 40.2436 and 40.2615 and 40.3242 and 40.3231 and 40.5303 | 42.9 and 42.7424 and 41.659 and 45.8766 and 44.7904 and 41.911 and 41.5838 and 41.7525 and 42.336 and 42.3262 and 44.1655 | 57.8 and 57.9585 and 52.2853 and 68.2239 and 65.3823 and 53.7555 and 51.8264 and 52.843 and 56.017 and 55.9674 and 63.4546 | 81.2 and 82.0022 and 77.8788 and 85.9249 and 85.1011 and 79.182 and 77.4265 and 78.3979 and 80.8371 and 80.8046 and 84.4497 | 88.4 and 88.5187 and 87.9157 and 89.0024 and 88.907 and 88.1183 and 87.8424 and 87.9978 and 88.3592 and 88.3546 and 88.8294 | 89.2835 and 89.2206 and 89.333 and 89.3233 and 89.2419 and 89.2129 and 89.2293 and 89.267 and 89.2665 and 89.3154 and 89.3 | 89.2835 and 89.2206 and 89.333 and 89.3
